B1: glial cell line-derived neurotrophic factor (protein, UniProt P39905 78-211, looked up)
Glial cell line-derived …: SPDKQMAVLPRRERNRQAAAANPENSRGKGRRGQRGKNRGCVLTAIHLNVTDLGLGYETKEELIFRYCSGSCDAAETTYDKILKNLSRNRRLVSDKVGQACCRPIAFDDDLSFLDDNLVYHILRKHSAKRCGCI
notes: Positive control neurotrophic factor, 100 ng/ml

What was measured:
ER stressed SCG neurons = assay: Survival of tunicamycin-treated (ER stressed) SCG sympathetic neurons after microinjection; type: cell-based, mice; details: tunicamycin 2 μM; for survived neurons as % compared to neurons grown in the presence of NGF: microinjected into cytoplasm, CDNF (400); for rescue of ER stressed SCG neurons (result in words): protein or peptide microinjected into the cytoplasm, living fluorescent neurons counted after 3 days
Protocol: Non-neuronal cells were removed by extensive preplating. Almost pure neurons were cultured in polyornithine/laminin (Sigma)-coated 35-mm plastic dishes in the small-size standard microislands in the Neurobasal medium and B27 supplement (Invitrogen/Gibco) in the presence of 30 ng/ml mouse nerve growth factor (NGF) (Promega) for 5-6 days. NGF was deprived by extensive washing and addition of the function-blocking anti-NGF antibodies (Roche). The neurons were pressure-microinjected with special neuronal microinjection equipment (Hellman et al., 2011; Hamner et al., 2001; Lindholm et al., 2002; Sun et al., 2001; Yu et al., 2003)(Sun et al., 2001; Sun et al., 2003). For the survival assay, all neurons on the microislands were counted in the beginning (initial number) and the end (three days) of the experiment and expressed as % of initial.
Microinjection of the sympathetic neurons was performed as described earlier (Yu, L. Y., Jokitalo, E., Sun, Y. F., Mehlen, P., Lindholm, D., Saarma, M., and Arumae, U. (2003) J Cell Biol. 163, 987-997). Plasmids for CDNF have been described earlier. Briefly, newborn mouse SCG neurons were grown with NGF (Promega) for 5-6 days then the nuclei were microinjected with the expression plasmids for full-length (FL)-CDNF and C-CDNF together with a reporter plasmid for enhanced green fluorescent protein (EGFP), using vector concentration of 10 ng/ul in each experiment. […] For protein microinjection, recombinant full length (FL)-CDNF, C-CDNF proteins in PBS at 200 ng/ul were microinjected directly into the cytoplasm together with fluorescent reporter Dextran Texas Red (MW 70000 Da) (Invitrogen, Molecular Probes) that facilitates identification of the successfully injected neurons. Next day tunicamycin (2 μM) was added, and after 3 days the living fluorescent neurons were counted. Living fluorescent (EGFP-expressing or Dextran Texas Red-containing) neurons were “blindly” counted three days later and expressed as percent of initial living fluorescent neurons counted 2-3 hours after microinjection. The experiments with plasmids were repeated on independent cultures 5 times for plasmid experiment, whereas four independent protein injection experiments were performed. On average, 50-80 neurons were successfully injected per experimental group. The results were expressed as the mean±the SEM. Data of each experimental group was compared with control plasmid PCR3.1 (vector) or PBS (in the protein injection experiments) by one-way ANOVA and post hoc Dunnett's t test. The null hypothesis was rejected at p<0.05.

dopamine neurons = assay: Survival of TH-positive dopamine neurons in dissociated midbrain floor cultures; type: cell-based, mouse; details: 5 days; for protection of dopaminergic neurons in culture (result in words): added to the culture medium, TH-positive neurons counted
Protocol: To study the dopamine neurons (Yu et al., 2008; Yu and Arumae, 2008), the midbrain floors were dissected from the ventral mesencephali of 13.5-d-old NMRI strain mouse embryos. Tissues were incubated with 0.5% trypsin (ICN Biomedical), then mechanically dissociated using a large fire-polished Pasteur pipette. The neurons were grown on the poly-L-ornithine-coated (Sigma) 96-well culture plates in DMEM/F12 medium (Invitrogen) containing N2 supplement (Invitrogen) in the presence or absence of GDNF (100 ng/ml) or with CDNF, MANF, C-CDNF and C-MANF polypeptides at different concentrations for five days. Same amount of the neurons were plated to each well at the beginning of the experiments. The cultures without added neurotrophic factors served as the negative control. As the midbrain cultures contain several neuronal types, the cultures were fixed and immunostained with the antibodies to tyrosine hydroxylase (TH) (Millipore), a specific marker for the dopaminergic neurons. Images of each well were scanned by CellInsight™ and immunopositive neurons were counted by CellProfiler and CellProfiler analyst software. Data are expressed as a percentage of GDNF-maintained TH-positive neurons. All experiments were repeated at least three times on the independent cultures. The results were expressed as the mean the SEM and were tested for the significance by either one-way ANOVA and Tukey's post hoc test or by two-tailed Student's t-test. The null hypothesis was rejected at P≤0.05.

[1] = Table 1B (FIG. 16), exp1, counted after 3 days
[2] = Table 1B (FIG. 16), exp2, counted after 3 days
[3] = Table 1B (FIG. 16), exp3, counted after 3 days
[4] = Table 3B (FIG. 17), AVG, 1 ng/ml
[5] = Table 3B (FIG. 17), AVG, 10 ng/ml
[6] = Table 3B (FIG. 17), AVG, 100 ng/ml
[7] = Table 3B (FIG. 17), AVG, 1000 ng/ml

| Molecule | survived neurons as % compared to neurons grown in the presence of NGF (ER stressed SCG neurons; [1]) [% NGF] | survived neurons as % compared to neurons grown in the presence of NGF (ER stressed SCG neurons; [2]) [% NGF] | survived neurons as % compared to neurons grown in the presence of NGF (ER stressed SCG neurons; [3]) [% NGF] | survived neurons as % compared to neurons grown in the presence of GDNF (dopamine neurons; [4]) [% GDNF] | survived neurons as % compared to neurons grown in the presence of GDNF (dopamine neurons; [5]) [% GDNF] | survived neurons as % compared to neurons grown in the presence of GDNF (dopamine neurons; [6]) [% GDNF] | survived neurons as % compared to neurons grown in the presence of GDNF (dopamine neurons; [7]) [% GDNF] | protection of dopaminergic neurons in culture (result in words) (dopamine neurons) | rescue of ER stressed SCG neurons (result in words) (ER stressed SCG neurons) | survived neurons as % compared to neurons grown in the presence of NGF (ER stressed SCG neurons; Table 1A (FIG. 14), AVG of exp1-2) [% NGF] | survived neurons as % compared to neurons grown in the presence of NGF (ER stressed SCG neurons; Table 1A (FIG. 14), exp1, counted after 3 days) [% NGF] | survived neurons as % compared to neurons grown in the presence of NGF (ER stressed SCG neurons; Table 1A (FIG. 14), exp2, counted after 3 days) [% NGF] | rescue of ER stressed SCG sympathetic neurons (result in words) (ER stressed SCG neurons; expressed from microinjected plasmids, living fluorescent neurons counted after three days) | survived neurons as % compared to neurons grown in the presence of GDNF (dopamine neurons; Table 3A (FIG. 15), AVG, 100 ng/ml) [% GDNF] | survived neurons as % compared to neurons grown in the presence of GDNF (dopamine neurons; Table 3A (FIG. 15), exp1, 100 ng/ml) [% GDNF] | survived neurons as % compared to neurons grown in the presence of GDNF (dopamine neurons; Table 3A (FIG. 15), exp2, 100 ng/ml) [% GDNF] | survived neurons as % compared to neurons grown in the presence of GDNF (dopamine neurons; Table 3A (FIG. 15), exp3, 100 ng/ml) [% GDNF] |
| --- | --- | --- | --- | --- | --- | --- | --- | --- | --- | --- | --- | --- | --- | --- | --- | --- | --- |
| TLDLASVDLRKMRVAEPKQILHSWGEECRACAEKTDYVNLIQEPAPKYA (Mutated C-CDNF peptide) [pep14] | 55.76 | 34.32 | 48.43 | 71.49 | 84.24 | 85.71 | 82.81 | best protective effect | – | – | – | – | – | – | – | – | – |
| RVAELKQILHSWGEECRACAEKTDYVNLIQELAPKYA (listed as Homo sapiens) [pep8] | 77.94 | 65.57 | 73.91 | 64.02 | 75.69 | 85.95 | 81.43 | best protective effect | rescue | – | – | – | – | – | – | – | – |
| cerebral dopamine neurotrophic factor [CDNF] | 86.00 | 71.23 | 83.33 | – | – | – | – | – | rescue | 88.04 | 85.71 | 90.36 | rescue | – | – | – | – |
| B1 | – | – | – | – | – | 100 | – | – | – | – | – | – | – | 100 | 100 | 100 | 100 |

From patent publication US12479895B2, “C-terminal CDNF and MANF fragments, pharmaceutical compositions comprising same and uses thereof” (MyNeuroCure Oy, priority 2018, dated 2025)
